Data published in patent US9029414B2, “Triterpenoid compounds and methods of use thereof” (Biotechnology Research Corporation, priority 2008, dated 2015).

Key:
[1] = target: T1, EP1 receptor (Homo sapiens, UniProt P34995); assay: Radioligand competition binding assay, EP1; details: EP1, target PGE2; compound at 10 μM in duplicate; read-out: % inhibition of control specific binding
T1 sequence (P34995 1-402): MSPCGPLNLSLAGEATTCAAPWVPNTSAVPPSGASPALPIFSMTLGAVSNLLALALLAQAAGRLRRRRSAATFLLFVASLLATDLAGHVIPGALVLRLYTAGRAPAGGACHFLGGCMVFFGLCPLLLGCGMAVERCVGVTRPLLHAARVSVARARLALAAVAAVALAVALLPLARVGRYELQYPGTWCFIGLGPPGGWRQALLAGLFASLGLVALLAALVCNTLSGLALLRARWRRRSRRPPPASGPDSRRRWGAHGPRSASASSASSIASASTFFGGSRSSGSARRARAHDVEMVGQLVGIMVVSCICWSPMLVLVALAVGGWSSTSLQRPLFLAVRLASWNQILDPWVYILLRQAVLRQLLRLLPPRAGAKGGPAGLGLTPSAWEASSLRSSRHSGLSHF
Method: (§1) DA001 was further evaluated against 32 receptor binding assays. Radioligand competition assays were conducted whereby DA001 was tested at one concentration (10 uM) in duplicate. […] It could compete with the radioligand [^3H] PGE2 binding at the EP1 and EP4 receptors, and weakly competed with the EP2 and FP receptors.
(§2) To determine the targets of DA compounds, the compound was assessed in binding assays for the family of prostanoid receptors. Both compounds were tested at a single concentration (10 μM) in duplicate. DA001 and DA021 inhibit the ligand binding of prostaglandin E2 receptors EP1, EP2 and EP4 and moderately to prostaglandin (PGF) to its receptor (FP), but not prostaglandin I (PGI2), thromoboxane A and prostaglandin D2 to their receptors.

[2] = test system: phosphorylated STAT3, STAT4, STAT6 in splenocytes of EAE mice; assay: Western blot of phosphorylated STAT proteins in EAE splenocytes; assay type: cell-based; details: exogenous 30 μM, MOG 25 μg/mL, splenocytes of vehicle-treated EAE mice
Method: On day 21, EAE mice were sacrificed by cervical dislocation and spleens were removed aseptically. The removed spleens were then cut with sterilized scissors and strained through […] mesh (BD Bioscience) with a plunger of 5 mL syringe (BD Bioscience) in 9 mL of RPMI 1640 (Invitrogen) with 100 U/mL penicillin and 100 μg/mL streptomycin (Sigma). The cell mixture was then added to 9 mL of Lympholyte (Cedarlane Laboratories) for gradient separation of splenocytes from red bloods cells by centrifugation at 1500 g for 20 min. After the centrifugation, the lympholyte layer containing splenocytes were carefully removed and washed with 10 mL of RPMI 1640 at 800 g for 10 min for three times. The isolated splenocytes were seeded onto different plate format and cultured with RPMI 1640 medium (Invitrogen) supplement with 10% heat inactivated fetal bovine serum (Invitrogen) and 100 U/mL penicillin and 100 μg/mL streptomycin at 37° C. CO2 incubator.
Splenocytes of EAE mice were cultured at the density of 1×10^7 cells in 6-well plates (Falcon) and treated with the absence or presence of the MOG peptide (25 μg/mL) (Hooke Laboratories), DA001, and DA021 (30 μM) for 24 h. After overnight incubation, the splenocytes were lysed with RIPA containing antipain dihydrochloride, trypsin inhibitor, leupeptin, aprotinin, sodium orthovanadate, benzamidine and phenyl methane sulphonyl fluoride. After centrifugation at 14000 rpm for 15 min, 4° C., protein concentrations were determined by Dc Protein Assay kit (Bio-Rad). 20 μg of each sample was subjected to 10% SDS-PAGE with 20 mA for 3 h. Immunoblot analysis was performed by transfer of proteins onto nitrocellulose membranes using a mini trans-blot apparatus (Bio-Rad). After 2 h blocking with milk, the membranes were incubated overnight at 4° C. with specific primary Abs (1:1000): anti-phospho-Stat 3 (Cell signaling), anti-phospho-Stat 4 (BD Bioscience), and anti-phospho-Stat 6 (Cell signaling). Anti-α-tubulin (Sigma) was used as a loading control. After washing, subsequent incubation with anti-rabbit or anti-mouse HRP-conjugated secondary antibody (1:3000) (Cell Signaling) for 1 h at room temperature was carried out. The signal was detected by ECL Western blot detection kit (GE Healthcare).
The efficacy of DA compounds in modulating the expression of pro-inflammation proteins was examined. Western blot analysis was performed on cultured splenocytes isolated from the spleen of EAE mice and the expression of signal transducers and activators of transcription (STAT) proteins was examined in response to exogenous treatments of MOG (25 μg/mL), DA001 (30 μM) and DA021 (30 μM). Exogenous addition of MOG [MOG (Ex)] to EAE splenocytes is shown to robustly increase the phosphorylation of STAT3, STAT4, and STAT6.
Western blot analysis was performed as described in the methodology.

[3] = target: IP receptor (Homo sapiens, UniProt P43119); assay: Radioligand competition binding assay, IP; details: target PGI, compound at 10 μM in duplicate, read-out: % inhibition of control specific binding
Method: as §1, §2

[4] = target: EP2 receptor (Homo sapiens, UniProt P43116); assay: Cellular receptor functional assay (cAMP), EP2; assay type: cell-based; set-up: expressed in transfected cells; details: for Agonist effect, cAMP measurement / Antagonist effect, cAMP measurement: EP2 receptor; for Antagonist effect, cAMP measurement: in presence of PGE2
Method: FIG. 13. […] A: Cellular functional assay for EP2; B: Cellular functional assay for […].
To determine whether the inhibitory effect of DA001 on the ligand binding to EP receptors results from agonist or antagonist activity, DA001 was evaluated at a single concentration (10 μM) on cellular-specific receptor functional assays. Upon ligand binding, the EP receptors are activated which leads to an increase in intracellular cyclic AMP.
DA001 was evaluated at 6 concentrations in cellular assays assessing receptor function. Upon ligand binding, the EP2 and EP4 receptor is activated which leads to an increase in intracellular cyclic AMP.
DA021 inhibits PGE2 ligand binding to EP1, EP2 and EP4 receptors. To determine whether the inhibitory effect is due to agonist or antagonist activity, DA021 was evaluated and compared at 1 concentration (30 uM) in cellular assays assessing receptor function. Upon ligand binding, the EP receptors are activated which leads to an increase in intracellular cyclic AMP.

Chain of EP2 receptor (P43116 whole entry): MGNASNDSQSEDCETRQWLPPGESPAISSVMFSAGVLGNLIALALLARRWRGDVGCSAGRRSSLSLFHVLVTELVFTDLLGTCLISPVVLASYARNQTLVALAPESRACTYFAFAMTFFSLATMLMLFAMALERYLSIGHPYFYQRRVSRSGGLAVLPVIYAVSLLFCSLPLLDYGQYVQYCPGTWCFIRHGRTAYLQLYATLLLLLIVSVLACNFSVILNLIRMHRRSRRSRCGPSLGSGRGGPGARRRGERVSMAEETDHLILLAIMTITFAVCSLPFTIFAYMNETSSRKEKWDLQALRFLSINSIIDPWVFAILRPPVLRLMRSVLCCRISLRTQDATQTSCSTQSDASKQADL
Chain of IP receptor (P43119 whole entry): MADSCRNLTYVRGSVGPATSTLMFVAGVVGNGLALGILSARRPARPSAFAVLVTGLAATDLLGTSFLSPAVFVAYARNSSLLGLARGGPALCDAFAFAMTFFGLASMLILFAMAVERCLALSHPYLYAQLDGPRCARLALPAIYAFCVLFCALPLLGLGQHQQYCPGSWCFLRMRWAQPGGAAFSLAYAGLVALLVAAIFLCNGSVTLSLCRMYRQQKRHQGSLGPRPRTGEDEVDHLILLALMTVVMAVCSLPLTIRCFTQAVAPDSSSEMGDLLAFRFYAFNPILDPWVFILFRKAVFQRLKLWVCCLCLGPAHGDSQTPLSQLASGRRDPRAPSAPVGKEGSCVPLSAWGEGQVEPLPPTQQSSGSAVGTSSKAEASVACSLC

SMILES | inhibition at 10 µM [1] [%] | MOG-induced STAT3 phosphorylation [2] | MOG-induced STAT4 phosphorylation [2] | inhibition at 10 µM [3] [%] | Agonist effect, cAMP measurement ([4]; 10 μM) [%] | Antagonist effect, cAMP measurement ([4]; 10 μM) [%] | IC50 ([4]; inhibition of PGE2-induced cAMP increase, 6 concentrations, read-out: IC50, antagonist effect) [µM] | STAT6 phosphorylation [2] | Agonist effect, cAMP measurement ([4]; 30 uM) | Antagonist effect, cAMP measurement ([4]; 30 uM)
C=C(C)[C@@H]1CC[C@]2(C(=O)O)CC[C@]3(C)C(CC[C@@H]4[C@@]5(C)CC[C@H](O[C@@H]6OC[C@H](O)[C@H](O)[C@H]6O[C@@H]6O[C@@H](C)[C@H](O)[C@@H](O)[C@H]6O)[C@@](C)(CO)[C@@H]5CC[C@]43C)[C@@H]12 (stereo partly drawn) [DA001, 3-O-[α-L-rhamnopyranosyl-(1→2)-α-L-arabinopyranosyl]-3,23-dihydroxy-20(29)-lupen-28-oic acid] | 52 | significantly decreased | significantly decreased | 0 | −0.8 | 2.2 | 36 |  |  | 
C=C(C)[C@@H]1CC[C@]2(/C=N/O)CC[C@]3(C)C(CCC4[C@@]5(C)CCC(=O)[C@@](C)(CO)[C@@H]5CC[C@]43C)C12 (some centres unmarked) [DA021] | 31 | significantly decreased | significantly decreased | 9 |  |  |  | marked decrease | −3 | 4
